Data published in paper PMC6429297, “Novel 8-Substituted Coumarins That Selectively Inhibit Human Carbonic Anhydrase IX and XII” (International Journal of Molecular Sciences, 2019).
Like-named read-outs stand apart in the source and are kept apart here.

How the values were obtained:
[1] = target: hCA I (Homo sapiens, UniProt P00915); test: stopped-flow CO2 hydrase assay, hCA I
Description: (§1) An Applied Photophysics stopped-flow instrument has been used for assaying the CA catalyzed CO2 hydration activity [24]. […] The uncatalyzed rates were determined in the same manner and subtracted from the total observed rates. Stock solutions of inhibitor (0.1 mM) were prepared in distilled-deionized water and dilutions up to 0.005 nM were done thereafter with the assay buffer. Inhibitor and enzyme solutions were preincubated together for 6 hours at room temperature prior to assay, in order to allow for the formation of the E-I complex. The inhibition constants were obtained by nonlinear least-squares methods using PRISM 3 (GraphPad Software, San Diego, CA, USA) and the Cheng–Prusoff equation, as reported by Maresca et al. [14], and represent the mean from at least three different determinations. All CA isoforms were recombinant ones obtained in-house.

[2] = target: hCA II (Homo sapiens, UniProt P00918); test: stopped-flow CO2 hydrase assay, hCA II
Description: as §1

[3] = target: hCA IX (Homo sapiens, UniProt Q16790); test: stopped-flow CO2 hydrase assay, hCA IX; conditions: recombinant hCA IX, 6 h preincubation, mean from three assays, errors ±5–10%
Description: as §1

[4] = target: hCA XII (Homo sapiens, UniProt O43570); test: stopped-flow CO2 hydrase assay, hCA XII
Chain of hCA XII (O43570 25-354): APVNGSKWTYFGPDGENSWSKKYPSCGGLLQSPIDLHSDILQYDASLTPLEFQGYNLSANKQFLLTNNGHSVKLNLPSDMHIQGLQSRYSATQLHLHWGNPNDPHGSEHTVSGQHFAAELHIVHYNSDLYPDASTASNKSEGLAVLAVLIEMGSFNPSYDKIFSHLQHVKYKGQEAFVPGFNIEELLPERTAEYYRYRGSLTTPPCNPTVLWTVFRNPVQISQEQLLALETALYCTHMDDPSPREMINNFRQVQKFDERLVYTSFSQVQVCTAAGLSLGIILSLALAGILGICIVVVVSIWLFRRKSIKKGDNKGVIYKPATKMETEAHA
Description: as §1

[5] = set-up: method as in PMID 20024932; conditions: hepatotoxic effect of coumarin; cited from earlier work

Chain of hCA I (P00915 whole entry): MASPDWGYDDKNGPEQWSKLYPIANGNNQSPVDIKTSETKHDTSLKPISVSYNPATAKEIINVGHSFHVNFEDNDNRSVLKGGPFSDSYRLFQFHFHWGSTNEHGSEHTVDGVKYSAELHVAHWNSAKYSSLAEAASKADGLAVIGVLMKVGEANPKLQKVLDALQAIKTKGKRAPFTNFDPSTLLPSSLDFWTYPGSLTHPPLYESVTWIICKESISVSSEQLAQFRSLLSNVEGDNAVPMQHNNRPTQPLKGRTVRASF

Compound | Ki [1] [µM] | Ki [2] [µM] | Ki ([3]; Ki (nM) hCA IX) [nM] | Ki [4] [µM] | Ki ([3]; read-out: Ki (nM) hCA IX) [nM] | tolerable daily intake [5] [mg/kg body weight]
Cc1cc(=O)oc2c(CN3CCN(CCO)CC3)c(O)ccc12 [Compound 5, 7-Hydroxy-8-[4-(2-hydroxyethyl)piperazin-1-ylmethyl]-4-methylchromen-2-one] | > 10 | > 10 | 295 | 0.0071 | – | –
C=CCN1CCN(Cc2c(O)ccc3c(C)cc(=O)oc23)CC1 [Compound 6, 8-(4-Allylpiperazin-1-ylmethyl)-7-hydroxy-4-methylchromen-2-one] | > 10 | > 10 | – | 0.0056 | 27.1 | –
Cc1cc(=O)oc2c(CN3CCN(c4ccccc4)CC3)c(O)ccc12 [Compound 7, 7-Hydroxy-4-methyl-8-(4-phenylpiperazin-1-ylmethyl)chromen-2-one] | > 10 | > 10 | 115 | 0.0077 | – | –
Cc1cc(=O)oc2c(CN3CCN(c4ccc(Cl)cc4)CC3)c(O)ccc12 [Compound 8, 8-[4-(4-Chlorophenyl)piperazin-1-ylmethyl]-7-hydroxy-4-methylchromen-2-one] | > 10 | > 10 | 190 | 0.0089 | – | –
Cc1cc(=O)oc2c(CN3CCN(c4ccc(F)cc4)CC3)c(O)ccc12 [Compound 9, 8-[(4-(4-Fluorophenyl)piperazin-1-yl)methyl]-7-hydroxy-4-methylchromen-2-one] | > 10 | > 10 | 92.8 | 0.0081 | – | –
Cc1cc(=O)oc2c(CN3CCN(c4ccc(Br)cc4)CC3)c(O)ccc12 [Compound 10, 7-Hydroxy-8-[4-(bromophenyl)-piperazin-1-ylmethyl]-4-methylchromen-2-one] | > 10 | > 10 | 162 | 0.0094 | – | –
Cc1ccc(N2CCN(Cc3c(O)ccc4c(C)cc(=O)oc34)CC2)cc1 [Compound 11, 7-Hydroxy-4-methyl-8-(4-p-tolyl-piperazin-1-ylmethyl)chromen-2-one] | > 10 | > 10 | 308 | 0.0096 | – | –
Cc1cc(=O)oc2c(CN3CCN(c4ccccc4F)CC3)c(O)ccc12 [Compound 12, 8-[4-(2-Fluorophenyl)piperazin-1-ylmethyl]-7-hydroxy-4-methylchromen-2-one] | > 10 | > 10 | 121 | 0.0264 | – | –
Cc1cc(=O)oc2c(CN3CCN(Cc4ccc5c(c4)OCO5)CC3)c(O)ccc12 [Compound 13, 8-(4-Benzo[1,3]dioxol-5-ylmethyl-piperazin-1-ylmethyl)-7-hydroxy-4-methyl-chromen-2-one] | > 10 | > 10 | 76.8 | 0.0085 | – | –
O=c1ccc2ccccc2o1 [coumarin] | – | – | – | – | – | 0.1

The next lines start with results.

Ki [1] [µM] | Ki [2] [µM] | Ki ([3]; Ki (nM) hCA IX) [nM] | Ki [4] [µM] | Ki ([3]; read-out: Ki (nM) hCA IX) [nM] | Compound | tolerable daily intake [5] [mg/kg body weight]
> 10 | > 10 | 32.1 | 0.0058 | – | Cc1cc(=O)oc2cc(O)ccc12 [Compound 1, 7-Hydroxy-4-methylchromen-2-one] | –
> 10 | > 10 | 67.5 | 0.0085 | – | Cc1cc(=O)oc2c(CN3CCN(Cc4c(O)ccc5c(C)cc(=O)oc45)CC3)c(O)ccc12 [Compound 2, 1,4-bis[(7-Hydroxy-4-methylcoumarin-8-yl)methyl] piperazine] | –
> 10 | > 10 | 88.7 | 0.0096 | – | Cc1cc(=O)oc2c(CN3CCN(C)CC3)c(O)ccc12 [Compound 3, 7-Hydroxy-4-methyl-8-(4-methylpiperazin-1-ylmethyl)chromen-2-one] | –
> 10 | > 10 | 32 | 0.0064 | – | CCN1CCN(Cc2c(O)ccc3c(C)cc(=O)oc23)CC1 [Compound 4, 8-(4-Ethylpiperazin-1-ylmethyl)-7-hydroxy-4-methylchromen-2-one] | –
